Measurements reported in patent US20050112573A1, “Method of detecting toxic substance” (priority 2001, published 2005).

Tested on: yeast genes (level of expressed mRNA)
Test: DNA chip analysis of expressed mRNA of yeast genes after 2 h culture with a toxic chemical substance
Assay type: cell-based, Saccharomyces cerevisiae S288C
Summary of the method: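 S. cerevisiae S288C in YPD at 25 °C was exposed at log phase for 2 h to a growth-inhibiting, non-lethal concentration of the chemical. Poly(A) mRNA was reverse-transcribed with Cy3- or Cy5-dUTP and hybridized to a whole-genome yeast DNA chip (65 °C, >12 h). Values are fluorescence ratios versus untreated cells.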

C[S+](C)[O-] [(15), dimethylsulfoxide]
level of expressed mRNA in the presence of chemical substance/in its absence (gene YAL012W): 3.1
The level of expressed mRNA in the presence of chemical substance/absence: YAL014C (gene YAL014C): 2.3
The level of expressed mRNA in the presence of chemical substance/absence: YAL017W (gene YAL017W): 1.0
The level of expressed mRNA in the presence of chemical substance/absence: YAL018C (gene YAL018C): 6.9
level of expressed mRNA in the presence of chemical substance/in its absence (gene YAL038W): 3.1
level of expressed mRNA in the presence of chemical substance/in its absence (gene YAL044C): 0.7
The level of expressed mRNA in the presence of chemical substance/absence: YAL049C (gene YAL049C): 1.4
level of expressed mRNA in the presence of chemical substance/in its absence (gene YAL054C): 0.9
The level of expressed mRNA in the presence of chemical substance/absence: YAR047C (gene YAR047C): 0.5
The level of expressed mRNA in the presence of chemical substance/absence: YAR064W (gene YAR064W): 1.9
level of expressed mRNA in the presence of chemical substance/in its absence (gene YAR071W): 1.1
level of expressed mRNA in the presence of chemical substance/in its absence (gene YBL001C): 1.0
The level of expressed mRNA in the presence of chemical substance/absence: YBL044W (gene YBL044W): 0.7
The level of expressed mRNA in the presence of chemical substance/absence: YBL100C (gene YBL100C): 1.0
The level of expressed mRNA in the presence of chemical substance/absence: YBR012C (gene YBR012C): 1.1
The level of expressed mRNA in the presence of chemical substance/absence: YBR013C (gene YBR013C): 1.1
level of expressed mRNA in the presence of chemical substance/in its absence (gene YBR014C): 1.2
level of expressed mRNA in the presence of chemical substance/in its absence (gene YBR023C): 2.8
level of expressed mRNA in the presence of chemical substance/in its absence (gene YBR029C): 3.5
level of expressed mRNA in the presence of chemical substance/in its absence (gene YBR035C): 0.7
level of expressed mRNA in the presence of chemical substance/in its absence (gene YBR050C): 0.5
The level of expressed mRNA in the presence of chemical substance/absence: YBR051W (gene YBR051W): 0.8
The level of expressed mRNA in the presence of chemical substance/absence: YBR063C (gene YBR063C): 1.6
The level of expressed mRNA in the presence of chemical substance/absence: YBR066C (gene YBR066C): 0.4
level of expressed mRNA in the presence of chemical substance/in its absence (gene YBR068C): 1.6
level of expressed mRNA in the presence of chemical substance/in its absence (gene YBR111C): 0.7
The level of expressed mRNA in the presence of chemical substance/absence: YBR124W (gene YBR124W): 1.0
The level of expressed mRNA in the presence of chemical substance/absence: YBR129C (gene YBR129C): 0.9
level of expressed mRNA in the presence of chemical substance/in its absence (gene YBR145W): 1.2
The level of expressed mRNA in the presence of chemical substance/absence: YBR162C (gene YBR162C): 1.9
level of expressed mRNA in the presence of chemical substance/in its absence (gene YBR183W): 1.1
level of expressed mRNA in the presence of chemical substance/in its absence (gene YBR222C): 4.3
The level of expressed mRNA in the presence of chemical substance/absence: YBR255W (gene YBR255W): 1.0
The level of expressed mRNA in the presence of chemical substance/absence: YBR281C (gene YBR281C): 1.0
The level of expressed mRNA in the presence of chemical substance/absence: YBR287W (gene YBR287W): 1.3
level of expressed mRNA in the presence of chemical substance/in its absence (gene YBR299W): 0.6
level of expressed mRNA in the presence of chemical substance/in its absence (gene YCL009C): 6.5
The level of expressed mRNA in the presence of chemical substance/absence: YCL044C (gene YCL044C): 4.4
The level of expressed mRNA in the presence of chemical substance/absence: YCL056C (gene YCL056C): 1.7
level of expressed mRNA in the presence of chemical substance/in its absence (gene YCL064C): 21.4
The level of expressed mRNA in the presence of chemical substance/absence: YCR007C (gene YCR007C): 0.8
level of expressed mRNA in the presence of chemical substance/in its absence (gene YCR037C): 1.0
level of expressed mRNA in the presence of chemical substance/in its absence (gene YCR048W): 3.1
level of expressed mRNA in the presence of chemical substance/in its absence (gene YCR098C): 11.0
level of expressed mRNA in the presence of chemical substance/in its absence (gene YDL022W): 0.9
The level of expressed mRNA in the presence of chemical substance/absence: YDL046W (gene YDL046W): 2.3
The level of expressed mRNA in the presence of chemical substance/absence: YDL089W (gene YDL089W): 1.6
The level of expressed mRNA in the presence of chemical substance/absence: YDL173W (gene YDL173W): 1.1
The level of expressed mRNA in the presence of chemical substance/absence: YDL193W (gene YDL193W): 1.2
The level of expressed mRNA in the presence of chemical substance/absence: YDL233W (gene YDL233W): 1.3
level of expressed mRNA in the presence of chemical substance/in its absence (gene YDR009W): 3.2
level of expressed mRNA in the presence of chemical substance/in its absence (gene YDR019C): 1.8
The level of expressed mRNA in the presence of chemical substance/absence: YDR071C (gene YDR071C): 0.9
The level of expressed mRNA in the presence of chemical substance/absence: YDR078C (gene YDR078C): 0.5
The level of expressed mRNA in the presence of chemical substance/absence: YDR090C (gene YDR090C): 1.1
The level of expressed mRNA in the presence of chemical substance/absence: YDR109C (gene YDR109C): 1.7
The level of expressed mRNA in the presence of chemical substance/absence: YDR128W (gene YDR128W): 1.4
The level of expressed mRNA in the presence of chemical substance/absence: YDR133C (gene YDR133C): 0.6
The level of expressed mRNA in the presence of chemical substance/absence: YDR140W (gene YDR140W): 0.9
The level of expressed mRNA in the presence of chemical substance/absence: YDR221W (gene YDR221W): 1.0
The level of expressed mRNA in the presence of chemical substance/absence: YDR250C (gene YDR250C): 0.7
The level of expressed mRNA in the presence of chemical substance/absence: YDR271C (gene YDR271C): 1.3
The level of expressed mRNA in the presence of chemical substance/absence: YDR278C (gene YDR278C): 0.7
The level of expressed mRNA in the presence of chemical substance/absence: YDR281C (gene YDR281C): 0.3
The level of expressed mRNA in the presence of chemical substance/absence: YDR316W (gene YDR316W): 1.3
The level of expressed mRNA in the presence of chemical substance/absence: YDR338C (gene YDR338C): 0.8
The level of expressed mRNA in the presence of chemical substance/absence: YDR366C (gene YDR366C): 1.4
level of expressed mRNA in the presence of chemical substance/in its absence (gene YDR380W): 2.4
level of expressed mRNA in the presence of chemical substance/in its absence (gene YDR410C): 1.2
The level of expressed mRNA in the presence of chemical substance/absence: YDR421W (gene YDR421W): 1.9
The level of expressed mRNA in the presence of chemical substance/absence: YDR425W (gene YDR425W): 1.3
The level of expressed mRNA in the presence of chemical substance/absence: YDR485C (gene YDR485C): 1.3
level of expressed mRNA in the presence of chemical substance/in its absence (gene YDR487C): 1.0
level of expressed mRNA in the presence of chemical substance/in its absence (gene YDR502C): 8.2
The level of expressed mRNA in the presence of chemical substance/absence: YDR504C (gene YDR504C): 1.2
level of expressed mRNA in the presence of chemical substance/in its absence (gene YEL011W): 0.4
level of expressed mRNA in the presence of chemical substance/in its absence (gene YEL020C): 1.4
The level of expressed mRNA in the presence of chemical substance/absence: YEL044W (gene YEL044W): 0.6
level of expressed mRNA in the presence of chemical substance/in its absence (gene YER026C): 4.0
level of expressed mRNA in the presence of chemical substance/in its absence (gene YER069W): 2.4
The level of expressed mRNA in the presence of chemical substance/absence: YER092W (gene YER092W): 1.0
The level of expressed mRNA in the presence of chemical substance/absence: YER182W (gene YER182W): 0.5
The level of expressed mRNA in the presence of chemical substance/absence: YFL042C (gene YFL042C): 1.1
level of expressed mRNA in the presence of chemical substance/in its absence (gene YFR015C): 0.4
The level of expressed mRNA in the presence of chemical substance/absence: YFR026C (gene YFR026C): 2.3
The level of expressed mRNA in the presence of chemical substance/absence: YFR056C (gene YFR056C): 0.9
level of expressed mRNA in the presence of chemical substance/in its absence (gene YGL001C): 0.9
level of expressed mRNA in the presence of chemical substance/in its absence (gene YGL022W): 4.0
level of expressed mRNA in the presence of chemical substance/in its absence (gene YGL039W): 1.5
The level of expressed mRNA in the presence of chemical substance/absence: YGL041C (gene YGL041C): 0.7
The level of expressed mRNA in the presence of chemical substance/absence: YGL045W (gene YGL045W): 1.5
The level of expressed mRNA in the presence of chemical substance/absence: YGL057C (gene YGL057C): 0.7
The level of expressed mRNA in the presence of chemical substance/absence: YGL088W (gene YGL088W): 0.4
level of expressed mRNA in the presence of chemical substance/in its absence (gene YGL104C): 0.9
level of expressed mRNA in the presence of chemical substance/in its absence (gene YGL126W): 2.8
level of expressed mRNA in the presence of chemical substance/in its absence (gene YGL134W): 0.5
level of expressed mRNA in the presence of chemical substance/in its absence (gene YGL154C): 0.8
The level of expressed mRNA in the presence of chemical substance/absence: YGL183C (gene YGL183C): 1.7
level of expressed mRNA in the presence of chemical substance/in its absence (gene YGL209W): 3.2
The level of expressed mRNA in the presence of chemical substance/absence: YGL223C (gene YGL223C): 0.7
level of expressed mRNA in the presence of chemical substance/in its absence (gene YGL253W): 0.8
The level of expressed mRNA in the presence of chemical substance/absence: YGR038W (gene YGR038W): 1.1
level of expressed mRNA in the presence of chemical substance/in its absence (gene YGR060W): 1.4
The level of expressed mRNA in the presence of chemical substance/absence: YGR139W (gene YGR139W): 2.3
The level of expressed mRNA in the presence of chemical substance/absence: YGR156W (gene YGR156W): 1.3
The level of expressed mRNA in the presence of chemical substance/absence: YGR198W (gene YGR198W): 0.9
The level of expressed mRNA in the presence of chemical substance/absence: YGR210C (gene YGR210C): 1.3
The level of expressed mRNA in the presence of chemical substance/absence: YGR211W (gene YGR211W): 0.5
The level of expressed mRNA in the presence of chemical substance/absence: YGR237C (gene YGR237C): 1.1
The level of expressed mRNA in the presence of chemical substance/absence: YGR243W (gene YGR243W): 0.8
The level of expressed mRNA in the presence of chemical substance/absence: YGR250C (gene YGR250C): 1.2
The level of expressed mRNA in the presence of chemical substance/absence: YGR266W (gene YGR266W): 1.1
The level of expressed mRNA in the presence of chemical substance/absence: YGR277C (gene YGR277C): 0.9
level of expressed mRNA in the presence of chemical substance/in its absence (gene YGR282C): 2.9
